Experimental data: patent US4465683A, “Anti-psychotic agents” (priority 1979, dated 1984)
Counter-ions that a name gives are not always drawn. Like-named read-outs stand apart in the source and are kept apart here.

Assays:
[1] = tested on: conditioned avoidance response (CAR); experiment: conditioned avoidance response (CAR) in rats, shuttle box technique, oral; format: in vivo; conditions: Rattus norvegicus, read-out: ORAL CAR-ED50
Description: The apparatus employed is a box having a six-inch barrier separating two equal compartments. The floor of the left side of the box contains an electrified grid by means of which an intermittent shock is administered. The other side is not electrified. Rats are trained by placing them individually in the electrified compartment of the box and administering a foot shock which causes the rat to jump the barrier to the non-electrified side. […] The test drug is then administered in various doses to different groups of rats and the effect of the treatment in terms of the number of rats which fail to jump the barrier before receiving a foot shock is measured. That dose of test drug which will reduce the number of conditioned animals jumping the barrier before receiving a foot shock by one-half is referred to as the CAR-ED50.

pernicious preening = experiment: Prevention of pernicious preening in mice (anti-psychotic or analgetic); format: in vivo; conditions: Mus musculus, po
reserpine ptosis = experiment: Prevention of reserpine ptosis in mice (anti-depressant); format: in vivo
phenylquinone writhing = experiment: Reduction of phenylquinone writhing in mice (analgesic); format: in vivo; conditions: Mus musculus, po
[2] = U.S. Pat. No. 3,381,009; cited from earlier work
[3] = compared with imipramine; cited from earlier work
schizophrenic patients = conditions: et al. (1973), cited from earlier work
[4] = rats, oral, dose reducing by one-half the number of conditioned animals jumping the barrier before foot shock

O=c1n(CCCCN2CCN(c3cccc(Cl)c3)CC2)nc2ccccn12 [Formula I, R^1 = H, R^2 = 3-Cl, 2-[4-[4-(3-Chlorophenyl)piperazin-1-yl]butyl]-1,2,4-triazolo[4,3-a]pyridin-3-(2H)-one]
ED50 [1, 4]: 9 mg/kg
ED50 (pernicious preening): 8 mg/kg
activity in prevention of reserpine ptosis (reserpine ptosis; at 15.7 mg/kg (p.o.)): inactive
ED50 (phenylquinone writhing): 23 mg/kg

Cl.O=c1n(CCCCN2CCN(c3cccc(C(F)(F)F)c3)CC2)nc2ccccn12 [Formula I, R^1 = H, R^2 = 3-CF3, 2-[4-[4-[3-(Trifluoromethyl)phenyl]-1-piperazinyl]butyl]-1,2,4-triazolo[4,3-a]pyridin-3(2H)-one Hydrochloride]
ED50 [1, 4]: 11.4 mg/kg

COc1ccccc1N1CCN(CCCCn2nc3ccccn3c2=O)CC1 [Formula I, R^1 = H, R^2 = 2-CH3 O, 2-[4-[4(2-Methoxphenyl)-1-piperazinyl]-butyl]-1,2,4-triazolo[4,3-a]pyridin-3-(2H)-one Hydrochloride]
ED50 [1, 4]: 18.4 mg/kg

CN(C)CCCN1c2ccccc2Sc2ccc(Cl)cc21 [Chlorpromazine]
ED50 ([1]; po): 38.7 mg/kg

O=c1n(CCCN2CCN(c3cccc(Cl)c3)CC2)nc2ccccn12 [Trazodone, 2-[3-[4-(3-chlorophenyl)-1-piperazinyl]-propyl]-1,2,4-triazolo[4,3-a]pyridin-3(2H)-one]
ED50 [1, 4]: 45.4 mg/kg
ED50 (pernicious preening): 43 mg/kg
ED50 (reserpine ptosis; Mus musculus, po): 36 mg/kg
pharmacological actions in animal tests [2]: tranquilizing action, hypotensive action, and analgesic action
clinical antidepressant effectiveness [3]: equivalent in effectiveness to imipramine
side effects in clinical use [3]: fewer side effects
effect on depressive symptoms exhibited by schizophrenics (schizophrenic patients; Ban): improvement in depressive symptoms
anti-psychotic action in schizophrenic patients (schizophrenic patients; Galvan): minimal
